Test results: ChEMBL document CHEMBL3046633, “Synthesis and antimycobacterial activities of some new N-acylhydrazone and thiosemicarbazide derivatives of 6-methyl-4,5-dihydropyridazin-3(2H)-one” (2012)
In brackets after ≈: the same amount, converted by molar mass.

Each compound was assayed on Mycobacterium tuberculosis (assay: Antimycobacterial activity against Mycobacterium tuberculosis by agar dilution method).
Type: functional

Compared with `CC1=NN(CC(=O)N/N=C/c2ccc(Cl)cc2Cl)C(=O)CC1`, `CC1=NN(CC(=O)N/N=C(\C)c2ccc(Cl)cc2Cl)C(=O)CC1` is 16-fold higher in MIC: 0.78 µM (≈ 0.266 µg/mL) for the first, 12.5 µM (≈ 4.44 µg/mL) for the second.

`CC1=NN(CC(=O)N/N=C/c2ccc(C(F)(F)F)cc2)C(=O)CC1` and `CC1=NN(CC(=O)N/N=C/c2ccc(F)cc2)C(=O)CC1` are the same in MIC: 1.56 µM (≈ 0.531 µg/mL) for the first, 1.56 µM (≈ 0.453 µg/mL) for the second.

`CC1=NN(CC(=O)N/N=C/c2ccc(N(C)C)cc2)C(=O)CC1` and `CC1=NN(CC(=O)N/N=C/c2ccc(C)cc2)C(=O)CC1` are the same in MIC: 12.5 µM (≈ 3.94 µg/mL) for the first, 12.5 µM (≈ 3.58 µg/mL) for the second.

Going from `CC1=NN(CC(=O)N/N=C/c2ccco2)C(=O)CC1` to `CC1=NN(CC(=O)N/N=C/c2cccs2)C(=O)CC1`, the MIC falls from greater than 25 µM to 25 µM (≈ 6.96 µg/mL).

First: CCOc1ccc(/C=N/NC(=O)CN2N=C(C)CCC2=O)cc1
Second: COc1ccc(/C=N/NC(=O)CN2N=C(C)CCC2=O)cc1
The MIC of the first is higher: greater than 25 µM for the first, 25 µM (≈ 7.56 µg/mL) for the second.

`CC1=NN(CC(=O)N/N=C(\C)c2ccccc2)C(=O)CC1` and `CC1=NN(CC(=O)N/N=C(\C)c2ccc(-c3ccccc3)cc2)C(=O)CC1` are the same in MIC: 25 µM (≈ 7.16 µg/mL) for the first, 25 µM (≈ 9.06 µg/mL) for the second.

`CC1=NN(CC(=O)N/N=C(\C)c2ccc(Cl)cc2)C(=O)CC1` and `CC1=NN(CC(=O)N/N=C(\C)c2ccc(Br)cc2)C(=O)CC1` are the same in MIC: 12.5 µM (≈ 4.01 µg/mL) for the first, 12.5 µM (≈ 4.57 µg/mL) for the second.

`CC1=NN(CC(=O)N/N=C(\C)c2ccc(C)cc2)C(=O)CC1` and `COc1ccc(/C(C)=N/NC(=O)CN2N=C(C)CCC2=O)cc1` are the same in MIC: 25 µM (≈ 7.51 µg/mL) for the first, 25 µM (≈ 7.91 µg/mL) for the second.

Compared with `CC1=NN(CC(=O)N/N=C(\C)c2ccc([N+](=O)[O-])cc2)C(=O)CC1`, `CC1=NN(CC(=O)N/N=C/c2ccc([N+](=O)[O-])cc2)C(=O)CC1` is 2-fold lower in MIC: 12.5 µM (≈ 4.14 µg/mL) for the first, 6.25 µM (≈ 1.98 µg/mL) for the second.

`CNC(=S)NNC(=O)CN1N=C(C)CCC1=O` and `CCNC(=S)NNC(=O)CN1N=C(C)CCC1=O` cannot be ordered by MIC: greater than 25 µM for the first, greater than 25 µM for the second.

Compared with `CC1=NN(CC(=O)NNC(=S)Nc2ccccc2)C(=O)CC1`, `CC1=NN(CC(=O)N/N=C/c2ccccc2)C(=O)CC1` is lower in MIC: greater than 25 µM for the first, 12.5 µM (≈ 3.4 µg/mL) for the second.

Compared with `CC1=NN(CC(=O)NN)C(=O)CC1`, `CC1=NN(CC(=O)N/N=C/c2ccc(Cl)cc2)C(=O)CC1` is 8-fold lower in MIC: 25 µM (≈ 4.6 µg/mL) for the first, 3.13 µM (≈ 0.96 µg/mL) for the second.

First: CC1=NN(CC(=O)N/N=C/c2ccc(Br)cc2)C(=O)CC1
Second: NNC(=O)c1ccncc1 [ISONIAZID]
The MIC of the first is 31-fold higher: 1.56 µM (≈ 0.548 µg/mL) for the first, 0.05 µM (≈ 0.00686 µg/mL) for the second.

Going from `O=C(O)c1cn(C2CC2)c2cc(N3CCNCC3)c(F)cc2c1=O` [CIPROFLOXACIN] to `CO[C@H]1/C=C/O[C@@]2(C)Oc3c(C)c(O)c4c(O)c(c(/C=N/N5CCN(C)CC5)c(O)c4c3C2=O)NC(=O)/C(C)=C\C=C\[C@H](C)[C@H](O)[C@@H](C)[C@@H](O)[C@@H](C)[C@H](OC(C)=O)[C@@H]1C` [RIFAMPIN], the MIC falls from 1.56 µM (≈ 0.517 µg/mL) to 0.1 µM (≈ 0.0823 µg/mL) (16-fold).

For `CC[C@@H](CO)NCCN[C@@H](CC)CO` [ETHAMBUTOL], the MIC was 1.56 µM (≈ 0.319 µg/mL).
